Columns and labels:
[1] = for thermal diffusivity: 101.33 kPa, Laser flash
[2] = molar heat capacity at constant pressure; conditions: 101.33 kPa, Laser pulse heating

[Zr] [zirconium]
Conditions	molar heat capacity at constant pressure, [2] [J/K/mol]	thermal diffusivity, [1] [m2/s]
289 K, Crystal 2	–	1.25e-05
293 K, Crystal 2	26.31	–
323 K, Crystal 2	26.57	–
327 K, Crystal 2	–	1.17e-05
373 K, Crystal 2	26.89	–
379 K, Crystal 2	–	1.11e-05
423 K, Crystal 2	27.31	1.07e-05
473 K, Crystal 2	27.78	1.03e-05
523 K, Crystal 2	28.27	–
524 K, Crystal 2	–	1.01e-05
569 K, Crystal 2	–	9.95e-06
573 K, Crystal 2	28.82	–
621 K, Crystal 2	–	9.84e-06
623 K, Crystal 2	29.33	–
670 K, Crystal 2	–	9.74e-06
673 K, Crystal 2	29.88	–
715 K, Crystal 2	–	9.76e-06
723 K, Crystal 2	30.6	–
772 K, Crystal 2	–	9.89e-06
773 K, Crystal 2	31.24	–
823 K, Crystal 2	31.87	–
827 K, Crystal 2	–	9.97e-06
872 K, Crystal 2	–	1.01e-05
873 K, Crystal 2	32.53	–
923 K, Crystal 2	33.26	1.02e-05
970 K, Crystal 2	–	1.03e-05
973 K, Crystal 2	33.94	–
1023 K, Crystal 2	34.6	1.05e-05
1068 K, Crystal 2	–	1.06e-05
1073 K, Crystal 2	35.23	–
1083 K, Crystal 2	35.42	–
1093 K, Crystal 2	35.84	–
1103 K, Crystal 2	36.88	–
1113 K, Crystal 2	39.48	–
1121 K, Crystal 2	–	9.27e-06
1123 K, Crystal 2	43.12	–
1128 K, Crystal 2	45.62	–
1132 K, Crystal 2	–	8.29e-06
1133 K, Crystal 2	49.09	–
1138 K, Crystal 2	61.42	–
1143 K, Crystal 1	52.29	7.99e-06
1148 K, Crystal 1	42.04	–
1150 K, Crystal 1	–	1.09e-05
1153 K, Crystal 1	33.83	–
1163 K, Crystal 1	31	–
1173 K, Crystal 1	29.58	–
1177 K, Crystal 1	–	1.41e-05
1218 K, Crystal 1	–	1.43e-05
1223 K, Crystal 1	29.71	–
1272 K, Crystal 1	–	1.48e-05
1273 K, Crystal 1	30.06	–
1317 K, Crystal 1	–	1.5e-05
1323 K, Crystal 1	30.23	–
1370 K, Crystal 1	–	1.51e-05
1373 K, Crystal 1	30.3	–
1423 K, Crystal 1	30.53	–
1431 K, Crystal 1	–	1.57e-05
1468 K, Crystal 1	–	1.57e-05
1473 K, Crystal 1	30.72	–
1523 K, Crystal 1	30.91	–
1573 K, Crystal 1	31.36	–
1623 K, Crystal 1	31.34	–
1673 K, Crystal 1	31.59	–
1723 K, Crystal 1	32.07	–
1773 K, Crystal 1	32.8	–
1823 K, Crystal 1	33.31	–
1873 K, Crystal 1	33.5	–
1923 K, Crystal 1	33.68	–
1973 K, Crystal 1	34.23	–

Conditions	Triple point temperature [K]
[1], Crystal 2, Laser pulse heating	1141.4

From the NIST ThermoML archive (doi:10.1007/s10765-006-0080-z)
